The text below walks through data of patent US5728670A, “Enzymatically stable alkyl (alkyl glycosid) uronates as nonionic surfactants and a process for their manufacture” (Lever Brothers Company, Division of Conopco, Inc., priority 1993, dated 1998).

The target in one data set is T1, Lipolase (Thermomyces lanuginosus, UniProt O59952).
T1 sequence (O59952 23-291): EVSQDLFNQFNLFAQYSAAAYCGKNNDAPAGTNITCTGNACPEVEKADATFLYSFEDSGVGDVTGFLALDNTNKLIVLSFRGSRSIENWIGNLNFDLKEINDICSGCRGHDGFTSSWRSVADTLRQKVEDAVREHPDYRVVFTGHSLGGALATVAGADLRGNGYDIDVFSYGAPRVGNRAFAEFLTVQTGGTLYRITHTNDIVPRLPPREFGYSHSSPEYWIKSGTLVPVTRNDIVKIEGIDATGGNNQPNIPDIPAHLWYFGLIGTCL
As to the kind of experiment: Enzyme stability: Lipolase-catalyzed hydrolysis monitored by pH-stat titration. The format is biochemical. Particulars: for MEAN SLOPE: Tris-HCl pH 8.0, 30° C., acid production titrated with 0.1N NaOH; for STABILITY / REL VELOCITY: Lipolase hydrolysis; for STABILITY: fold relative to α-methyl D-glucose monolaurate; for REL VELOCITY: relative to α-methyl D-glucose monolaurate = 100. As to the method: Enzyme catalyzed hydrolysis of uronates was monitored using a TitraLab (Radiometer, Copenhagen) pH-stat autotitrator. Emulsified substrate was prepared by mixing water (5 mL), 1-butanol (1 mL), acacia gum (1 g), and substrate (0.357 mmoles) using a homogenizer (Omni-mixer, OCI Instruments)for 15 minutes. Emulsified substrate (5 mL) was mixed with Tris-HCl buffer (20 mL, 100 mM, pH 8.0) and equilibrated at 30° C. in a thermostatic reaction cup. Lipolase (20.5 LU) was added to initiate the reaction and the production of acid was monitored by titration with 0.1N NaOH.

The nature of data set [1]: Wash cycle stability (t1/2) by automatic titrator. In kind it is physicochemical. Particulars: 40° C., pH=10, 8.13×10^-3 M concentration; 8130 µM. The protocol: The wash cycle stability or half-life (t1/2) of decyl(methyl α-D-galactopyranosid)uronate was determined using an automatic titrator at 40° C., pH=10, 8.13×10^-3 M concentration.

With `CCCCCCCCCCCC(=O)OC[C@H]1OC(O)[C@H](O)[C@@H](O)[C@@H]1O` (stereo partly drawn) [D-Glucose Mono-laurate, D-glucose monolaurate], at Lipolase (Lipolase 20.5 LU), the “MEAN SLOPE” value worked out at 1.6880. Moreover, at Lipolase, the STABILITY came out at 2.4 X and the “REL VELOCITY” value is recorded as 42.
On to `CCCCCCCCCCOC(=O)[C@H]1O[C@H](OC)[C@H](O)[C@@H](O)[C@H]1O` [Decyl(Methyl α-D-Galactopyranosid)uronate], for which, in data set [1], the “Wash cycle stability or half-life (t1/2)” value is 7.9 h.
As for `CCCCCCCCCCOC(=O)[C@H]1O[C@@H](OC)[C@H](O)[C@@H](O)[C@H]1O` [Decyl(Methyl β-D-Galactopyranosid)uronate], the “MEAN SLOPE” value on Lipolase (Lipolase 20.5 LU) turned out to be 0.7101. For the same compound, at Lipolase, the STABILITY is reported as 5.6 X and the “REL VELOCITY” value was found to be 18.
Consider `CCCCCCOC(=O)[C@H]1O[C@H](OC)[C@H](O)[C@@H](O)[C@H]1O` [Hexyl(Methyl α-D-Galactopyranosid)uronate], for which the “Enzyme stability to lipolase hydrolysis (in words)” value on Lipolase (Lipolase 20.5 LU, pH 8.0, 30° C.) is “very stable/slow hydrolysis”.
With `CCCCCCCCCCCC(=O)OC[C@H]1O[C@H](OC)[C@H](O)[C@@H](O)[C@@H]1O` [α-Methyl D-Glucose Monolaurate, α-methyl D-glucose monolaurate], the “MEAN SLOPE” value on Lipolase (Lipolase 20.5 LU) is recorded as 3.9921. Moreover, on Lipolase, the STABILITY turned out to be 1 X and the “REL VELOCITY” value is listed as 100.
